For series [1], the target named is T1, Mu-type opioid receptor (Rattus norvegicus, UniProt P33535). As to the kind of experiment: Compound was evaluated for its ability to displace [3H]- CTOP (mu opioid receptor selective ligand).
In series [2] the target is T2, Delta-type opioid receptor (Mus musculus, UniProt P32300). As to the kind of experiment: Compound was evaluated for […] at Opioid receptor delta 1.
The target of series [3] is T3, Delta-type opioid receptor (Rattus norvegicus, UniProt P33533). Nature of the series: Compound was evaluated for the binding affinity in comparison with [3H][p-Cl-Phe4]-DPDPE (delta opioid receptor selective ligand).
Series [4] addresses Delta-type opioid receptor (Homo sapiens) (UniProt P41143). As to the kind of experiment: Compound was evaluated for the percentage of maximum inhibition at opioid receptor delta.
Series [5] in a line: Macroscopic pKa value of the compound. Type of series: physicochemical.
For series [6], the target named is T2, Delta-type opioid receptor. As to the kind of experiment: Compound was evaluated for its inhibitory potency against Opioid receptor delta 1 of Mouse vas deferens. Type of series: tissue-based.
The target in series [7] is T1, Mu-type opioid receptor. Nature of the series: Compound was evaluated for its ability to displace [3H]- CTOP (opioid receptor mu selective ligand).
Series [8] deals with T2, Delta-type opioid receptor. As to the kind of experiment: Compound was evaluated for its inhibitory potency against opioid receptor delta of Mouse vas deferens. Type of series: tissue-based.
Series [9] has as its target T3, Delta-type opioid receptor. As to the kind of experiment: Compound was evaluated for the binding affinity in comparison with [3H][p-Cl-Phe4]-DPDPE (opioid receptor delta selective ligand).
In series [10] the target is T3, Delta-type opioid receptor. As to the kind of experiment: Compound was evaluated for the binding affinity in comparison with [3H]- DPDPE (opioid receptor delta selective ligand).

T3 sequence (P33533 whole entry): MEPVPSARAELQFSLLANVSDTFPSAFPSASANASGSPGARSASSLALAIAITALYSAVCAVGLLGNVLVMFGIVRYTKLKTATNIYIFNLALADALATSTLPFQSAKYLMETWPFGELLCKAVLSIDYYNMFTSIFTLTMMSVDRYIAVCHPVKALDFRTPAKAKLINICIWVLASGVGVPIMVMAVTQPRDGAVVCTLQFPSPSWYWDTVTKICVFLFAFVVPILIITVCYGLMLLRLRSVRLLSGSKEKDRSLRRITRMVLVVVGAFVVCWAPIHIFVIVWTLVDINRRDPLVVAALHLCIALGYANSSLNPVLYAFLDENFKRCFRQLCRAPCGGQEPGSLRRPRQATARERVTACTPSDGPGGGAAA
T1 sequence (P33535 whole entry): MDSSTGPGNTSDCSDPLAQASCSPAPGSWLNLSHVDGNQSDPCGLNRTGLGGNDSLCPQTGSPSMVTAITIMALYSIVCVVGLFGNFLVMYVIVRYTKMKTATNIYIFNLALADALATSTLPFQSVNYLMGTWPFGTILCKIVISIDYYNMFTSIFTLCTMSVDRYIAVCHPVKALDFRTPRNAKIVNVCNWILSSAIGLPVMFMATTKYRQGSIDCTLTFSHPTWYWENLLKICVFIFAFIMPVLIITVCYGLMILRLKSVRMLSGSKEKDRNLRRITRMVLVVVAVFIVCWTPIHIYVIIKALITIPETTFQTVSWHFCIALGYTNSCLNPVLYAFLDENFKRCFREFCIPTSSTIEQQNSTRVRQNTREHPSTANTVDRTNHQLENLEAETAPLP
T2 sequence (P32300 whole entry): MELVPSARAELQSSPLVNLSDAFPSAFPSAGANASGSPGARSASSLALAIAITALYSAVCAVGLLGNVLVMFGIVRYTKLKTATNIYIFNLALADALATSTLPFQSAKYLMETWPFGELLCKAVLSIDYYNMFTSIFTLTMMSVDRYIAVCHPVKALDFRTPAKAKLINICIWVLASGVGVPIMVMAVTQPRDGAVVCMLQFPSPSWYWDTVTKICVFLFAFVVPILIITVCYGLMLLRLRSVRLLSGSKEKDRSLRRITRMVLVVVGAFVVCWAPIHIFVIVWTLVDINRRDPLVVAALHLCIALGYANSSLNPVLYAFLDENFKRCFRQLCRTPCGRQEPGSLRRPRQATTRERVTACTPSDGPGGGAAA
Sequence of Delta-type opioid receptor (Homo sapiens) (P41143 whole entry): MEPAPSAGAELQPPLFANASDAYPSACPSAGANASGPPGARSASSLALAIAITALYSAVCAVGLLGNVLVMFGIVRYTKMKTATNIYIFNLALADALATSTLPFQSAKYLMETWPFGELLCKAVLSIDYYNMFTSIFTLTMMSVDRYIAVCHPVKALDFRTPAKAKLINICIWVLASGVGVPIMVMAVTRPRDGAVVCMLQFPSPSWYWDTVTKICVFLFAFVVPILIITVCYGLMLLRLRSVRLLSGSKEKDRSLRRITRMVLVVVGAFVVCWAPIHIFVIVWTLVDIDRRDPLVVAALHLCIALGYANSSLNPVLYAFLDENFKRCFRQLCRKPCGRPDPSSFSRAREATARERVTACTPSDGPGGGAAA

Take `Cc1cc(O)ccc1C[C@@H](N)C(=O)N[C@H]1C(=O)NCC(=O)N[C@@H](Cc2ccccc2)C(=O)N[C@@H](C(=O)O)C(C)(C)SSC1(C)C`: the 50% inhibitory concentration (IC50) at Mu-type opioid receptor [1] was found to be 16.6 µM; in [2], 763 nM; in [3], 1130 nM.

In [4], `CC1(C)SSC(C)(C)[C@@H](NC(=O)[C@]2(N)CCC3C=C(O)C=CC3C2)C(=O)NCC(=O)N[C@@H](Cc2ccccc2)C(=O)N[C@H]1C(=O)O` (stereo in doubt; 8) [listing 1 of 2 here] came in with an Emax of 31%.

In turn, `CC1(C)SSC(C)(C)[C@@H](NC(=O)[C@@H](N)Cc2ccc(O)c([N+](=O)[O-])c2)C(=O)NCC(=O)N[C@@H](Cc2ccccc2)C(=O)N[C@H]1C(=O)O` yielded a pKa in series [5] of 7.2.

Turning to `C[C@H](c1ccc(O)cc1)[C@@H](N)C(=O)N[C@H]1C(=O)NCC(=O)N[C@@H](Cc2ccccc2)C(=O)N[C@@H](C(=O)O)C(C)(C)SSC1(C)C`, the results for the 50% inhibitory concentration (IC50) (on Mu-type opioid receptor [1]; in series [6]; in series [3]) were 22.8 µM, 20.7 µM and 426 nM, respectively.

Compound `CC1(C)SSC(C)(C)[C@@H](NC(=O)[C@@H](N)Cc2ccc(O)c(N)c2)C(=O)NCC(=O)N[C@@H](Cc2ccccc2)C(=O)N[C@H]1C(=O)O` came in with a pKa in series [5] of 10.

With `CC1(C)SSC(C)(C)[C@@H](NC(=O)[C@]2(N)CCC3C=C(O)C=CC3C2)C(=O)NCC(=O)N[C@@H](Cc2ccccc2)C(=O)N[C@H]1C(=O)O` (stereo in doubt; 9) [listing 1 of 2 here], the values for the half-inhibitory concentration (IC50) (at Mu-type opioid receptor [7]; in series [8]; in series [9]) were 1440 nM, 22 nM and 2.36 nM, respectively.

In the case of `COc1cc(C[C@H](N)C(=O)N[C@H]2C(=O)NCC(=O)N[C@@H](Cc3ccccc3)C(=O)N[C@@H](C(=O)O)C(C)(C)SSC2(C)C)ccc1O`, the pKa in series [5] came out at 9.7.

Turning to `CC1(C)SSC(C)(C)[C@@H](NC(=O)[C@]2(N)CCC3C=C(O)C=CC3C2)C(=O)NCC(=O)N[C@@H](Cc2ccccc2)C(=O)N[C@H]1C(=O)O` (stereo in doubt; 8) [listing 2 of 2 here], the IC50 on Mu-type opioid receptor [7] amounted to 2820 nM; in [8], 137 nM; in series [9], 24.5 nM.

For `CC1(C)SSC(C)(C)[C@@H](NC(=O)[C@]2(N)CCC3C=C(O)C=CC3C2)C(=O)NCC(=O)N[C@@H](Cc2ccccc2)C(=O)N[C@H]1C(=O)O` (stereo in doubt; 9) [listing 2 of 2 here], the maximum response (Emax) in [4] turned out to be 79%.

With `C[C@@H](c1ccc(O)cc1)[C@H](N)C(=O)N[C@H]1C(=O)NCC(=O)N[C@@H](Cc2ccccc2)C(=O)N[C@@H](C(=O)O)C(C)(C)SSC1(C)C`, the 50% inhibitory concentration (IC50) came to 18.6 µM on Mu-type opioid receptor [1], 243 nM in series [2] and 440 nM in series [3].

With `Cc1cc(O)ccc1C[C@H](N)C(=O)N[C@H]1C(=O)NCC(=O)N[C@@H](Cc2ccccc2)C(=O)N[C@@H](C(=O)O)C(C)(C)SSC1(C)C`, the figures for the IC50 (at Mu-type opioid receptor [7]; in [10]; in series [8]) were 1170 nM, 0.89 nM and 4.52 nM, respectively.

Take `C[C@H](c1ccc(O)cc1)[C@H](N)C(=O)N[C@H]1C(=O)NCC(=O)N[C@@H](Cc2ccccc2)C(=O)N[C@@H](C(=O)O)C(C)(C)SSC1(C)C`: the half-inhibitory concentration (IC50) on Mu-type opioid receptor [1] is > 20 µM; in series [2] it was 14.6 nM; in series [3], 84.8 nM.

For `C[C@@H](c1ccc(O)cc1)[C@@H](N)C(=O)N[C@H]1C(=O)NCC(=O)N[C@@H](Cc2ccccc2)C(=O)N[C@@H](C(=O)O)C(C)(C)SSC1(C)C`, the IC50 on Mu-type opioid receptor [1] is > 40 µM; in series [2], 698 nM; in series [3] it was 20000 nM.

Compound `CC1(C)SSC(C)(C)[C@@H](NC(=O)[C@@H](N)Cc2ccc(O)c(I)c2)C(=O)NCC(=O)N[C@@H](Cc2ccccc2)C(=O)N[C@H]1C(=O)O` displayed a pKa in series [5] of 8.2.

For the origin of these results see ChEMBL document CHEMBL1126091, “Ring substituted and other conformationally constrained tyrosine analogues of [D-Pen2,D-Pen5]enkephalin with delta opioid receptor selectivity” (J Med Chem, 1992).
